From patent publication US8138168B1 (Takeda Pharmaceutical Company Limited, priority 2007, dated 2012)

biological target: T1, Recombinant human renin (Homo sapiens, UniProt P00797); experiment: In vitro enzymatic activity assay of renin inhibitors (fluorogenic peptide substrate); assay type: biochemical; conditions: read-out: IC50 of Exemplified Compounds Against Renin
T1 construct: isolate the active form (residues 67-406); made in house; host or cells: FreeStyle 293-F cells (transient expression of pcDNA3.1(+)/hREN)
T1 sequence (P00797 67-406): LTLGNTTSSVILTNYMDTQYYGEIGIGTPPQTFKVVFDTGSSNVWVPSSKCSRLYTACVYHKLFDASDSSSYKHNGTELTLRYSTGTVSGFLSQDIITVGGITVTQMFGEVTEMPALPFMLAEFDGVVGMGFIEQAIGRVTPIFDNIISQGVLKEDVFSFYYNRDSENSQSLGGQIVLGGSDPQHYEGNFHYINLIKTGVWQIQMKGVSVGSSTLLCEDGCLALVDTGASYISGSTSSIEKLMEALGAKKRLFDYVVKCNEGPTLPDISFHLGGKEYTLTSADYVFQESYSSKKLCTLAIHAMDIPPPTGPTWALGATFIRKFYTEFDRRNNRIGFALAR
In short: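 Enzyme: recombinant human renin, 3 nM final, 10 min compound pre-incubation at 37 °C; buffer 50 mM Hepes pH 7.4 with 0.1 mg/mL BSA or extra 2% BSA; 5% DMSO.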

Compound | IC50 [nM]
COCCCn1c([C@@H]2CCCN(C(=O)[C@@H]3CN(C(=O)c4ccc(-c5ccccc5)o4)C[C@H]3N)C2)nc2ccccc21 [Compound 352, ((3R,4S)-4-amino-1-(5-phenylfuran-2-carbonyl)pyrrolidin-3-yl)((R)-3-(1-(3-methoxypropyl)-1H-benzo[d]imidazol-2-yl)piperidin-1-yl)methanone] | 100 to 1000
COCCCn1c([C@@H]2CCCN(C(=O)[C@@H]3CN(S(=O)(=O)c4cccc(Cl)c4C)C[C@H]3N)C2)nc2ccccc21 [Compound 353, ((3R,4S)-4-amino-1-(3-chloro-2-methylphenylsulfonyl)pyrrolidin-3-yl)((R)-3-(1-(3-methoxypropyl)-1H-benzo[d]imidazol-2-yl)piperidin-1-yl)methanone] | 100 to 1000
COCCCn1c([C@@H]2CCCN(C(=O)[C@@H]3CN(S(=O)(=O)c4cccc5ccccc45)C[C@H]3N)C2)nc2ccccc21 [Compound 354, ((3R,4S)-4-amino-1-(naphthalen-1-ylsulfonyl)pyrrolidin-3-yl)((R)-3-(1-(3-methoxypropyl)-1H-benzo[d]imidazol-2-yl)piperidin-1-yl)methanone] | 100 to 1000
COCCCn1c([C@@H]2CCCN(C(=O)[C@@H]3CN(S(=O)(=O)c4ccc5c(c4)CCO5)C[C@H]3N)C2)nc2ccccc21 [Compound 355, ((3R,4S)-4-amino-1-(2,3-dihydrobenzofuran-5-ylsulfonyl)pyrrolidin-3-y1)((R)-3-(1-(3-methoxypropyl)-1H-benzo[d]imidazol-2-yl)piperidin-1-yl)methanone] | 100 to 1000
COCCCn1c([C@@H]2CCCN(C(=O)[C@@H]3CN(S(=O)(=O)c4cc(C(F)(F)F)ccc4Cl)C[C@H]3N)C2)nc2ccccc21 [Compound 356, ((3R,4S)-4-amino-1-(2-chloro-5-(trifluoromethyl)phenylsulfonyl)pyrrolidin-3-yl)((R)-3-(1-(3-methoxypropyl)-1H-benzo[d]imidazol-2-yl)piperidin-1-yl)methanone] | 100 to 1000
COCCCn1c([C@@H]2CCCN(C(=O)[C@@H]3CN(S(=O)(=O)c4cccc(OC)c4)C[C@H]3N)C2)nc2ccccc21 [Compound 357, ((3R,4S)-4-amino-1-(3-methoxyphenylsulfonyl)pyrrolidin-3-yl)((R)-3-(1-(3-methoxypropyl)-1H-benzo[d]imidazol-2-yl)piperidin-1-yl)methanone] | 100 to 1000
COCCCn1c([C@@H]2CCCN(C(=O)[C@@H]3CN(C(=O)c4cccc(Oc5ccccc5)c4)C[C@H]3N)C2)nc2ccccc21 [Compound 358, ((3R,4S)-4-amino-1-(3-phenoxybenzoyl)pyrrolidin-3-yl)((R)-3-(1-(3-methoxypropy1)-1H-benzo[d]imidazol-2-yl)piperidin-1-yl)methanone] | 100 to 1000
COCCCn1c([C@@H]2CCCN(C(=O)[C@@H]3CN(S(=O)(=O)c4c(C)cccc4Cl)C[C@H]3N)C2)nc2ccccc21 [Compound 359, ((3R,4S)-4-amino-1-(2-chloro-6-methylphenylsulfonyl)pyrrolidin-3-yl)((R)-3-(1-(3-methoxypropyl)-1H-benzo[d]imidazol-2-yl)piperidin-1-yl)methanone] | 100 to 1000
COCCCn1c([C@@H]2CCCN(C(=O)[C@@H]3CN(S(=O)(=O)c4ccc5c(ccn5C)c4)C[C@H]3N)C2)nc2ccccc21 [Compound 360, ((3R,4S)-4-amino-1-(1-methyl-1H-indol-5-ylsulfonyl)pyrrolidin-3-yl)((R)-3-(1-(3-methoxypropyl)-1H-benzo[d]imidazol-2-yl)piperidin-1-yl)methanone] | 100 to 1000
COCCCn1c([C@@H]2CCCN(C(=O)[C@@H]3CN(S(=O)(=O)c4ccc(Cl)c(Cl)c4)C[C@H]3N)C2)nc2ccccc21 [Compound 361, ((3R,4S)-4-amino-1-(3,4-dichlorophenylsulfonyl)pyrrolidin-3-yl)((R)-3-(1-(3-methoxypropyl)-1H-benzo[d]imidazol-2-yl)piperidin-1-yl)methanone] | 100 to 1000
COCCCn1c([C@@H]2CCCN(C(=O)[C@@H]3CN(C(=O)c4ccc5ccccc5c4)C[C@H]3N)C2)nc2ccccc21 [Compound 362, ((3R,4S)-1-(2-naphthoyl)-4-aminopyrrolidin-3-yl)((R)-3-(1-(3-methoxypropyl)-1H-benzo[d]imidazol-2-yl)piperidin-1-yl)methanone] | 100 to 1000
COCCCn1c([C@@H]2CCCN(C(=O)[C@@H]3CN(S(=O)(=O)c4cccc(Cl)c4Cl)C[C@H]3N)C2)nc2ccccc21 [Compound 363, ((3R,4S)-4-amino-1-(2,3-dichlorophenyisulfonyl)pyrrolidin-3-yl)((R)-3-(1-(3-methoxypropyl)-1H-benzo[d]imidazol-2-yl)piperidin-1-yl)methanone] | 100 to 1000
COCCCn1c([C@@H]2CCCN(C(=O)[C@@H]3CN(S(=O)(=O)c4cccc(-c5csc(C)n5)c4)C[C@H]3N)C2)nc2ccccc21 [Compound 364, ((3R,4S)-4-amino-1-(3-(2-methylthiazol-4-yl)phenylsulfonyl)pyrrolidin-3-yl)((R)-3-(1-(3-methoxypropyl)-1H-benzo[d]imidazol-2-yl)piperidin-1-yl)methanone] | 100 to 1000
COCCCn1c([C@@H]2CCCN(C(=O)[C@@H]3CN(C(=O)c4ccc(Cl)c(Cl)c4)C[C@H]3N)C2)nc2ccccc21 [Compound 365, ((3R,4S)-4-amino-1-(3,4-dichlorobenzoyl)pyrrolidin-3-yl)((R)-3-(1-(3-methoxypropyl)-1H-benzo[d]imidazol-2-yl)piperidin-1-yl)methanone] | 100 to 1000
COCCCn1c([C@@H]2CCCN(C(=O)[C@@H]3CN(C(=O)c4cccnc4Oc4ccccc4)C[C@H]3N)C2)nc2ccccc21 [Compound 366, ((3R,4S)-4-amino-1-(2-phenoxynicotinoyl)pyrrolidin-3-yl)((R)-3-(1-(3-methoxypropyl)-1H-benzo[d]imidazol-2-yl)piperidin-1-yl)methanone] | 100 to 1000
COCCCn1c([C@@H]2CCCN(C(=O)[C@@H]3CN(C(=O)Nc4cccc(OC)c4)C[C@H]3N)C2)nc2ccccc21 [Compound 367, (3S,4R)-3-amino-N-(3-methoxyphenyl)-4-((R)-3-(1-(3-methoxypropyl)-1H-benzo[d]imidazol-2-yl)piperidine-1-carbonyl)pyrrolidine-1-carboxamide] | 100 to 1000
COCCCn1c([C@@H]2CCCN(C(=O)[C@@H]3CN(S(=O)(=O)c4cccc(Oc5ccccc5)c4)C[C@H]3N)C2)nc2ccccc21 [Compound 368, ((3R,4S)-4-amino-1-(3-phenoxyphenylsulfonyl)pyrrolidin-3-y1)((R)-3-(1-(3-methoxypropyl)-1H-benzo[d]imidazol-2-yl)piperidin-1-yl)methanone] | 100 to 1000
COCCCn1c([C@@H]2CCCN(C(=O)[C@@H]3CN(S(=O)(=O)c4ccc(OC)cc4)C[C@H]3N)C2)nc2ccccc21 [Compound 369, ((3R,4S)-4-amino-1-(4-methoxyphenylsulfonyl)pyrrolidin-3-yl)((R)-3-(1-(3-methoxypropyl)-1H-benzo[d]imidazol-2-yl)piperidin-1-yl)methanone] | 100 to 1000
COCCCn1c([C@@H]2CCCN(C(=O)[C@@H]3CN(S(=O)(=O)c4ccc(Cl)cc4)C[C@H]3N)C2)nc2ccccc21 [Compound 370, ((3R,4S)-4-amino-1-(4-chlorophenylsulfonyl)pyrrolidin-3-yl)((R)-3-(1-(3-methoxypropyl)-1H-benzo[d]imidazol-2-yl)piperidin-1-yl)methanone] | 100 to 1000
